From patent US6689773B2, “Uracil substituted phenyl sulfamoyl carboxamides” (BASF Aktiengesellschaft, priority 2000, dated 2004)

Legend:
Format in all cases: in vivo
[1] = test system: IPOHE, Morningglory, Ivyleaf, Ipomoea hederacea, (L)Jacq.; test: Preemergence herbicidal evaluation (Example 148); conditions: rating scale 0-9, two to four weeks after treatment
Summary of the method: (§1)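 Following sowing, cups received a soil spray of the compound dissolved in aqueous acetone, dosed to about 0.125 to 0.250 kg per hectare. Growth continued in the greenhouse under routine care before visual scoring at two to four weeks.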

[2] = test system: XANST, Cocklebur, Xanthium strumariam; test: Preemergence herbicidal evaluation (Example 148); conditions: rating scale 0-9, two to four weeks after treatment
Summary of the method: as §1

[3] = test system: ALOMY, Blackgrass, Alopecurus myosuroides; test: Preemergence herbicidal evaluation (Example 148); conditions: rating scale 0-9, two to four weeks after treatment
Summary of the method: as §1

[4] = test system: CHEAL, Lambsquarters, Chenopodium album, L. Common; test: Preemergence herbicidal evaluation (Example 148); conditions: rating scale 0-9, two to four weeks after treatment
Summary of the method: as §1

[5] = test system: SETVI, Green foxtail, Setaria viridis, (L.)Beau; test: Preemergence herbicidal evaluation (Example 148); conditions: rating scale 0-9, two to four weeks after treatment
Summary of the method: as §1

[6] = test system: DIGSA, Crabgrass, (Hairy) L, Digitaria sanguinalis, (L)Scop; test: Preemergence herbicidal evaluation (Example 148); conditions: rating scale 0-9, two to four weeks after treatment
Summary of the method: as §1

[7] = test system: ZEAMX, Field corn, Zea mays L.; test: Preemergence herbicidal evaluation (Example 148); conditions: rating scale 0-9, two to four weeks after treatment
Summary of the method: as §1

[8] = test system: ECHCG, Barnyardgrass, Echinochloa crusgalli, (L.)Beau; test: Preemergence herbicidal evaluation (Example 148); conditions: rating scale 0-9, two to four weeks after treatment
Summary of the method: as §1

[9] = test system: AMBEL, Ragweed, Common, Ambrosia artemiisifolia, L.; test: Preemergence herbicidal evaluation (Example 148); conditions: rating scale 0-9, two to four weeks after treatment
Summary of the method: as §1

[10] = test system: TRZAW, Winter wheat, Tritium Aestivum, L. (Winter); test: Preemergence herbicidal evaluation (Example 148); conditions: rating scale 0-9, two to four weeks after treatment
Summary of the method: as §1

[11] = test system: ABUTH, Velvetleaf, Abutilon theophrasti, Medic.; test: Preemergence herbicidal evaluation (Example 148); conditions: rating scale 0-9, two to four weeks after treatment
Summary of the method: as §1

[12] = test system: GLXMA, Soybean, Glycine max, (L.) Merr.; test: Preemergence herbicidal evaluation (Example 148); conditions: rating scale 0-9, two to four weeks after treatment
Summary of the method: as §1

[13] = test system: IPOHE, Morningglory, Ivyleaf, Ipomoea hederacea, (L)Jacq.; test: Postemergence herbicidal evaluation (Example 147); conditions: rating scale 0-9, two to three weeks after treatment
Summary of the method: (§2)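 First, seedlings were raised for about two weeks. Next, they were sprayed at 40 psi with compound (about 0.016 to 0.032 kg/ha) in acetone/water 80/20 containing 1.0% methylated seed oil. Finally, after two to three greenhouse weeks, overall appearance versus control was rated 0-9, averaging repeat tests.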

[14] = test system: XANST, Cocklebur, Xanthium strumariam; test: Postemergence herbicidal evaluation (Example 147); conditions: rating scale 0-9, two to three weeks after treatment
Summary of the method: as §2

[15] = test system: ALOMY, Blackgrass, Alopecurus myosuroides; test: Postemergence herbicidal evaluation (Example 147); conditions: rating scale 0-9, two to three weeks after treatment
Summary of the method: as §2

[16] = test system: CHEAL, Lambsquarters, Chenopodium album, L. Common; test: Postemergence herbicidal evaluation (Example 147); conditions: rating scale 0-9, two to three weeks after treatment
Summary of the method: as §2

[17] = test system: SETVI, Green foxtail, Setaria viridis, (L.)Beau; test: Postemergence herbicidal evaluation (Example 147); conditions: rating scale 0-9, two to three weeks after treatment
Summary of the method: as §2

[18] = test system: DIGSA, Crabgrass, (Hairy) L, Digitaria sanguinalis, (L)Scop; test: Postemergence herbicidal evaluation (Example 147); conditions: rating scale 0-9, two to three weeks after treatment
Summary of the method: as §2

[19] = test system: ZEAMX, Field corn, Zea mays L.; test: Postemergence herbicidal evaluation (Example 147); conditions: rating scale 0-9, two to three weeks after treatment
Summary of the method: as §2

[20] = test system: ECHCG, Barnyardgrass, Echinochloa crusgalli, (L.)Beau; test: Postemergence herbicidal evaluation (Example 147); conditions: rating scale 0-9, two to three weeks after treatment
Summary of the method: as §2

[21] = test system: AMBEL, Ragweed, Common, Ambrosia artemiisifolia, L.; test: Postemergence herbicidal evaluation (Example 147); conditions: rating scale 0-9, two to three weeks after treatment
Summary of the method: as §2

[22] = test system: TRZAW, Winter wheat, Tritium Aestivum, L. (Winter); test: Postemergence herbicidal evaluation (Example 147); conditions: rating scale 0-9, two to three weeks after treatment
Summary of the method: as §2

[23] = test system: ABUTH, Velvetleaf, Abutilon theophrasti, Medic.; test: Postemergence herbicidal evaluation (Example 147); conditions: rating scale 0-9, two to three weeks after treatment
Summary of the method: as §2

[24] = test system: GLXMA, Soybean, Glycine max, (L.) Merr.; test: Postemergence herbicidal evaluation (Example 147); conditions: rating scale 0-9, two to three weeks after treatment
Summary of the method: as §2

In the case of Cn1c(C(F)(F)F)cc(=O)n(-c2cc(C(=O)NS(N)(=O)=O)c(Cl)cc2F)c1=O [Example 58], the “Preemergence herbicidal rating IPOHE” value ([1]; rate 0.125 kg/ha) is reported as 9.0, the “Preemergence herbicidal rating IPOHE” value ([1]; rate 0.25 kg/ha) is reported as 9.0 and the “Preemergence herbicidal rating XANST” value ([2]; rate 0.125 kg/ha) is reported as 5.0. For the same compound, the “Preemergence herbicidal rating XANST” value ([2]; rate 0.25 kg/ha) was 8.0, the “Preemergence herbicidal rating ALMOY” value ([3]; rate 0.125 kg/ha) was 0.0 and the “Preemergence herbicidal rating ALMOY” value ([3]; rate 0.25 kg/ha) was 0.0. For the same compound, the “Preemergence herbicidal rating CHEAL” value ([4]; rate 0.125 kg/ha) was 9.0, the “Preemergence herbicidal rating CHEAL” value ([4]; rate 0.25 kg/ha) was 9.0 and the “Preemergence herbicidal rating SETVI” value ([5]; rate 0.125 kg/ha) was 2.0. For the same compound, the “Preemergence herbicidal rating SETVI” value ([5]; rate 0.25 kg/ha) was 6.0, the “Preemergence herbicidal rating DIGSA” value ([6]; rate 0.125 kg/ha) was 0.0 and the “Preemergence herbicidal rating DIGSA” value ([6]; rate 0.25 kg/ha) was 3.0. The “Preemergence herbicidal rating ZEAMX” value ([7]; rate 0.125 kg/ha) was 0.0, the “Preemergence herbicidal rating ZEAMX” value ([7]; rate 0.25 kg/ha) was 1.0 and the “Preemergence herbicidal rating ECHCG” value ([8]; rate 0.125 kg/ha) was 4.0. The “Preemergence herbicidal rating ECHCG” value ([8]; rate 0.25 kg/ha) was 6.0, the “Preemergence herbicidal rating AMBEL” value ([9]; rate 0.125 kg/ha) was 9.0 and the “Preemergence herbicidal rating AMBEL” value ([9]; rate 0.25 kg/ha) was 9.0. The “Preemergence herbicidal rating TRZAW” value ([10]; rate 0.125 kg/ha) was 0.0, the “Preemergence herbicidal rating TRZAW” value ([10]; rate 0.25 kg/ha) was 3.0 and the “Preemergence herbicidal rating ABUTH” value ([11]; rate 0.125 kg/ha) was 9.0. For the same compound, the “Preemergence herbicidal rating ABUTH” value ([11]; rate 0.25 kg/ha) was 9.0, the “Preemergence herbicidal rating GLXMA” value ([12]; rate 0.125 kg/ha) was 9.0 and the “Preemergence herbicidal rating GLXMA” value ([12]; rate 0.25 kg/ha) was 9.0. The “Postemergence herbicidal rating IPOHE” value ([13]; rate 0.016 kg/ha) was 9.0, the “Postemergence herbicidal rating IPOHE” value ([13]; rate 0.032 kg/ha) was 9.0 and the “Postemergence herbicidal rating XANST” value ([14]; rate 0.016 kg/ha) was 9.0. The “Postemergence herbicidal rating XANST” value ([14]; rate 0.032 kg/ha) was 9.0, the “Postemergence herbicidal rating ALMOY” value ([15]; rate 0.016 kg/ha) was 3.0 and the “Postemergence herbicidal rating ALMOY” value ([15]; rate 0.032 kg/ha) was 3.0. The “Postemergence herbicidal rating CHEAL” value ([16]; rate 0.016 kg/ha) was 8.0, the “Postemergence herbicidal rating CHEAL” value ([16]; rate 0.032 kg/ha) was 9.0 and the “Postemergence herbicidal rating SETVI” value ([17]; rate 0.016 kg/ha) was 8.0. For the same compound, the “Postemergence herbicidal rating SETVI” value ([17]; rate 0.032 kg/ha) was 8.0, the “Postemergence herbicidal rating DIGSA” value ([18]; rate 0.016 kg/ha) was 5.0 and the “Postemergence herbicidal rating DIGSA” value ([18]; rate 0.032 kg/ha) was 6.0. The “Postemergence herbicidal rating ZEAMX” value ([19]; rate 0.016 kg/ha) was 8.0, the “Postemergence herbicidal rating ZEAMX” value ([19]; rate 0.032 kg/ha) was 8.0 and the “Postemergence herbicidal rating ECHCG” value ([20]; rate 0.016 kg/ha) was 6.0. For the same compound, the “Postemergence herbicidal rating ECHCG” value ([20]; rate 0.032 kg/ha) was 7.0, the “Postemergence herbicidal rating AMBEL” value ([21]; rate 0.016 kg/ha) was 9.0 and the “Postemergence herbicidal rating AMBEL” value ([21]; rate 0.032 kg/ha) was 9.0. For the same compound, the “Postemergence herbicidal rating TRZAW” value ([22]; rate 0.016 kg/ha) was 4.5, the “Postemergence herbicidal rating TRZAW” value ([22]; rate 0.032 kg/ha) was 5.0 and the “Postemergence herbicidal rating ABUTH” value ([23]; rate 0.016 kg/ha) was 9.0. For the same compound, the “Postemergence herbicidal rating ABUTH” value ([23]; rate 0.032 kg/ha) was 9.0, the “Postemergence herbicidal rating GLXMA” value ([24]; rate 0.016 kg/ha) was 8.5 and the “Postemergence herbicidal rating GLXMA” value ([24]; rate 0.032 kg/ha) was 8.5.
